According to ChEMBL document CHEMBL3616455, “Anti-adipogenic activity of a new cyclic diarylheptanoid isolated from Alnus japonica on 3T3-L1 cells via modulation of PPARγ, C/EBPα and SREBP1c signaling” (Bioorg Med Chem Lett, 2015):
Activity calls are given as the source filed them. No cut-off for these calls is given here.

Assays:
[1] = species: Mus musculus; experiment: Inhibition of PPARgamma/C/EBPalpha/SREBP1c in mouse 3T3L1 preadipocytes assessed as inhibition of adipocyte differentiation by measuring remaining lipid content at 100 uM measured on day 8 by Oil Red O staining-based spectrophotometric analysis relative to control; assay type: cell-based
[2] = Downregulation of C/EBPbeta mRNA expression in mouse 3T3L1 preadipocytes at 50 to 100 uM measured on day 2 by qRT-PCR analysis; assay type: functional, cell-based; conditions: 3T3-L1
[3] = target: T1, Sterol regulatory element-binding protein 1 (Mus musculus) (UniProt Q9WTN3); experiment: Inhibition of SREBP1c in mouse 3T3L1 preadipocytes at 50 to 100 uM after 8 days by Western blot analysis; assay type: cell-based
T1 sequence (whole entry): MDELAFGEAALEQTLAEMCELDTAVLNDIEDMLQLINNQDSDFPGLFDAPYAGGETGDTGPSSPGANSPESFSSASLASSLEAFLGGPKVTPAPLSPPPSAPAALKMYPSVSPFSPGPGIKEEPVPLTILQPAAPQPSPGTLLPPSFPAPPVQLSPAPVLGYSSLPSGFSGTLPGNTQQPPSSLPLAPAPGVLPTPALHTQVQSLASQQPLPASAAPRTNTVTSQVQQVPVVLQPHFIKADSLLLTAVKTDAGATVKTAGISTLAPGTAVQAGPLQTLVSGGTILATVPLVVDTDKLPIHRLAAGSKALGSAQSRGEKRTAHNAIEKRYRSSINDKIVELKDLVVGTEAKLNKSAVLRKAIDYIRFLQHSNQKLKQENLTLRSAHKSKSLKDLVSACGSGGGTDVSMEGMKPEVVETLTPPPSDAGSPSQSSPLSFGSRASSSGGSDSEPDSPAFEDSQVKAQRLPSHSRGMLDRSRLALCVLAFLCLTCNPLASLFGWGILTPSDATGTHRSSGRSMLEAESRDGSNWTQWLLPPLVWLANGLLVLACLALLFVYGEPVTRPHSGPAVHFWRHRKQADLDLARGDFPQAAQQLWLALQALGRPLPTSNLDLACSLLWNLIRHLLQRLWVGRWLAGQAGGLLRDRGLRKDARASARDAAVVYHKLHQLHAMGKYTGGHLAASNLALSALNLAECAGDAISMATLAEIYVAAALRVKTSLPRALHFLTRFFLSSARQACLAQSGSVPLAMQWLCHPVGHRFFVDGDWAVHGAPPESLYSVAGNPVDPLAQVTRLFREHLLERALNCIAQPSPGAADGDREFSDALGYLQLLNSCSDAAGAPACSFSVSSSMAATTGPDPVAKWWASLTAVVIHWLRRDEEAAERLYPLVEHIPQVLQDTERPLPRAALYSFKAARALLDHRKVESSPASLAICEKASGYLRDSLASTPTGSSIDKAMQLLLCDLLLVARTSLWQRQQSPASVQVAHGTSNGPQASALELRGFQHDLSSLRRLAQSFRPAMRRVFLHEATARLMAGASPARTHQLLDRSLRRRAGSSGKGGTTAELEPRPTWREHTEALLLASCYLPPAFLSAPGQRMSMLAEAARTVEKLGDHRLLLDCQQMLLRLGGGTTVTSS

[4] = Downregulation of C/EBPdelta mRNA expression in mouse 3T3L1 preadipocytes at 50 to 100 uM measured on day 2 by qRT-PCR analysis; assay type: functional, cell-based; conditions: 3T3-L1
[5] = Downregulation of LPL mRNA expression in mouse 3T3L1 preadipocytes at 50 to 100 uM after 8 days by qRT-PCR analysis; assay type: functional, cell-based; conditions: 3T3-L1
[6] = target: T1, Sterol regulatory element-binding protein 1 (Mus musculus); experiment: Inhibition of SREBP1c in mouse 3T3L1 preadipocytes assessed as downregulation of SCD-1 mRNA expression at 50 to 100 uM after 8 days by qRT-PCR analysis; assay type: cell-based
[7] = target: CCAAT/enhancer-binding protein alpha (Mus musculus) (UniProt P53566); experiment: Inhibition of C/EBPalpha in mouse 3T3L1 preadipocytes at 50 to 100 uM after 8 days by Western blot analysis relative to control; assay type: cell-based
Sequence of CCAAT/enhancer-binding protein alpha (Mus musculus) (P53566 whole entry): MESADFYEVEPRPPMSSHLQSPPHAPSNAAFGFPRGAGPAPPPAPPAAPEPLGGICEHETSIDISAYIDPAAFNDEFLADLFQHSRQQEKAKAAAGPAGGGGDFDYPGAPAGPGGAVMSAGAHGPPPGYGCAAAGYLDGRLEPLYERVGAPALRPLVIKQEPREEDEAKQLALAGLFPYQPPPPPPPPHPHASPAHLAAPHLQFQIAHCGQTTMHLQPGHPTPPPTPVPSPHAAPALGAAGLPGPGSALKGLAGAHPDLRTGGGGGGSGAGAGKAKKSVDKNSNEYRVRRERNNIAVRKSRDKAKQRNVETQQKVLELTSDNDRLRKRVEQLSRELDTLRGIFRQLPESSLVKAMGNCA

[8] = target: T2, Peroxisome proliferator-activated receptor gamma (Mus musculus) (UniProt P37238); experiment: Inhibition of PPARgamma in mouse 3T3L1 preadipocytes at 50 to 100 uM after 8 days by Western blot analysis relative to control; assay type: cell-based
T2 sequence (whole entry): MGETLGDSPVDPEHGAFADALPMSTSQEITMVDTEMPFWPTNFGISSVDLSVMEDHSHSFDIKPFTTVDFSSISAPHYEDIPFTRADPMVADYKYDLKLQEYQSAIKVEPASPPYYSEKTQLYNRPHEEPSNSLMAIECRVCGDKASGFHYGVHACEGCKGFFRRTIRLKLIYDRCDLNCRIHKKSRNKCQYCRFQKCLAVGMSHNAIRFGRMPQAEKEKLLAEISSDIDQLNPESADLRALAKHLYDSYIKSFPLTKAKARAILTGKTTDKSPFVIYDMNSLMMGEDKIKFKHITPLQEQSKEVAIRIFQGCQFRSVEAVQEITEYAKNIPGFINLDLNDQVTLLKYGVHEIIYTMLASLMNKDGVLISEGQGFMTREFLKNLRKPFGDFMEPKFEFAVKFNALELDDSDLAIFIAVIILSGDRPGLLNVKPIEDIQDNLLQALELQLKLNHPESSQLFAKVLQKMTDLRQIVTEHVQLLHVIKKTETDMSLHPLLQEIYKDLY

[9] = target: T1, Sterol regulatory element-binding protein 1 (Mus musculus); experiment: Inhibition of SREBP1c in mouse 3T3L1 preadipocytes assessed as downregulation of FAS mRNA expression at 50 to 100 uM after 8 days by qRT-PCR analysis; assay type: cell-based

O=C(CCc1ccc(O)c(O)c1)C[C@H](CCc1ccc(O)c(O)c1)O[C@@H]1OC[C@@H](O)[C@H](O)[C@H]1OC(=O)/C=C/c1ccccc1
Activity [1]: 85.6%

O=C(CCc1ccc(O)c(O)c1)C[C@H](CCc1ccc(O)c(O)c1)O[C@@H]1OC[C@@H](O)[C@H](O)[C@H]1OC(=O)/C=C/c1ccc(O)cc1
Activity [1]: 95.7%

Oc1ccc2cc1-c1cc(ccc1O)CC(O)C(O)CC(O)C(O)C2 (stereo not given)
Activity [1]: 58.5%

COc1cc(/C=C/C(=O)O[C@H]2[C@H](O[C@@H](CCc3ccc(O)c(O)c3)CC(=O)CCc3ccc(O)c(O)c3)OC[C@@H](O)[C@@H]2O)ccc1O
Activity [1]: 71.3%

O=C1CCCCc2ccc(O)c(c2)-c2cc(ccc2O)CC1
Activity [1]: 54.4%

O=C(O[C@@H]1Cc2c(O)cc(O)cc2O[C@@H]1c1cc(O)c(O)c(O)c1)c1cc(O)c(O)c(O)c1
Activity [1]: 54.5%

O=C1CCc2ccc(O)c(c2)-c2cc(ccc2O)CCC(=O)C1O
Activity [1]: 11.6%
Activity [2]: Active
inhibition [3]: Active
Activity [4]: Active
Activity [5]: Active
inhibition [6]: Active
inhibition [7]: Active
inhibition [8]: Active
inhibition [9]: Active
